The source of these data is US10870635B2, “Compounds and their use as BACE1 inhibitors” (ALLGENESIS BIOTHERAPEUTICS, INC., priority 2015, dated 2020).

Structures are written as SMILES.

One experiment addresses recombinant BACE2 (Homo sapiens (Human), UniProt Q9Y5Z0). Briefly: AnaSpec BACE2 fluorescent assay. Type of experiment: biochemical. The method, then:
A BACE2 activity assay kit from AnaSpec (Fremont, Calif.) was used to determine the potency of the selected compounds by AnaSpec BACE2 fluorescent assay. To each well of a black 96-well micro plate, 50 μl of the β-secretase substrate (Hylite Fluor 488) diluted 1:100 using assay buffer was first added.
The compounds were serially diluted (1:2) into DMSO from their 10 mM stock concentrations in DMSO. The serially diluted inhibitors were diluted 1:100 into 1× assay buffer in a 96-well polypropylene plate (assay dilution plate). The final concentration of these compounds tested was 300 nM, 150 nM, 75 nM, 37.5 nM, 18.75 nM, 9.375 nM, 4.688 nM, 2.344 nM, 1.172 nM, 0.586 nM, and 0.293 nM.
A volume of 10 μl of the inhibitor from the assay dilution plate, a control inhibitor LY2886721 or inhibitor vehicle was then added to each well of the black 96-well micro plate.
The recombinant BACE2 was diluted in an assay buffer and the final BACE2 was 10.6 nM. The enzyme was added in a volume of 40 μl to each well of a black 96-well micro plate.
The reagents were mixed gently and the assay plate was placed into a POLARstar fluorescent plate reader with excitation wavelength set at 485 nm and the emission wavelength set at 520 nm. The plate reader was set to take readings every 5 minutes for up to 30 minutes or a 30 minute endpoint reading was used.
An appropriate integrated first-order rate equation was used to fit the data accumulated over a 30-40 minute collection period. Dose responses for inhibitors were run in duplicate.

For experiment [1], the system named is Aβ38, Aβ40 and Aβ42 in CSF. Briefly: Efficacy study in monkeys: Aβ biomarkers in CSF after single oral administration. Type of experiment: in vivo, cynomolgus monkeys. To be noted: Monkey CSF. The text has this: Certain isoforms of amyloid β peptide (AR), such as Aβ338, Aβ340 and Aβ342 have been established as relevant biomarkers that reflect BACE1 activity and have been exploited to establish translational relationships between different cellular assays and animal models. In this efficacy study, mammals were used to assess amyloid β reduction with BACE1 inhibitors. In a clinical setting, plasma and cerebrospinal fluid (CSF) are the accessible compartments to measure soluble amyloid β levels to determine target profile. It is important to analyze plasma and CSF levels which relate to changes in brain amyloid β levels. The concentration of BACE1 inhibitors and their time-dependent reduction of plasma, CSF and brain amyloid β levels were investigated following intravenous and oral administrations of BACE1 inhibitors.
a (ii). Formulation for PO administration: 5% (v/v) PEG400+95% (v/v) of 1% (w/v) methyl cellulose in water (the viscosity of methyl cellulose is 20 g/L, 20° C., cPa·s: 350.0-550.0). The test article solutions were prepared by dissolving the compound in PEG400 followed by the addition of the aqueous solution to the final volume.
For the oral formulation of a BACE1 inhibitor in the monkey efficacy study (at the dose of 20 mg/kg with the concentration of 2 mg/ml)
1) Weighed […] of the selected BACE1 inhibitors into a clean vial;
2) Added 2.826 mL of PEG400 into the tube containing the compound. Then vortexed for 5 min and sonicated for 45 min;
3) Added 53.688 mL of 1% MC in water into the tube containing the compound. Then vortexed for 4 min and sonicated for 4 min; and
4) Adjusted the pH to the physiological value by using 1N NaOH.
Several studies have shown that drug transport into the CNS may be more similar between humans and primates. […] To explore the mechanism of BACE1 compounds, the compounds were tested using this in vivo study. […] The monkey Aβ reduction study usually takes 3 weeks.
The time-course profiles of neurodegeneration biomarkers were determined following single oral administration of the selected BACE1 inhibitors to male cynomolgus monkeys. Blood samples were collected from all animals via the saphenous vein or cephalic vein at 0 (pre-dose), 0.5, 1, 3, 6, 8, 12 and 24 hr post-dose into test tubes containing potassium ethylenediaminotetraacetic acid (K2EDTA). CSF samples were collected via a pre-implanted cannula at the foramina occipital magnum site at 0 (pre-dose), 3, 6, 12 and 24 hr post-dose.
Plasma was separated from the blood by centrifugation at 4° C. and stored at −80° C. until analyzing. The biomarkers of Aβ38, Aβ40 and Aβ42 in CSF were quantified using Meso Scale Discovery (MSD) multiplex electrochemiluminescence immunoassay according to the manufacturer's instructions. The plates were first blocked with 150 μL of Diluent 35 for 1 hour at room temperature with constant shaking at 600 rpm. After washing three times with 200 μL washing buffer, 25 μL of 1× detection antibody solution, plus Aβ40 blocker, 25 μL of seven standards, zero standard and four-fold diluted samples were added to the assay plate. The plate was incubated for 2 hours at room temperature, with constant shaking at 600 rpm. Upon finishing, the plate was washed three times with washing buffer and read in a Sector Imager 6000 (MSD) immediately after addition of 150 μL of 2× Read Buffer T. Aβ concentrations were calculated with reference to the standard curves of each individual peptide and expressed as pg/mL using SoftMax Pro GXP 5.4.4.

In experiment [2] the target is BACE1 (recombinant β-secretase enzyme) (Homo sapiens (Human), UniProt P56817). Briefly: AnaSpec BACE1 fluorescent assay (beta-secretase activity assay). Type of experiment: biochemical. Here is the method:
A BACE1 activity assay kit from AnaSpec (Fremont, Calif.) was used to determine the potency of the selected BACE1 inhibitors by AnaSpec BACE1 fluorescent assay. The recombinant β-secretase enzyme was diluted 1:200 in 1× assay buffer (1 part of 1× assay buffer and 1 part of TBS containing 0.1% Tween 20). The enzyme was added in a volume of 40 μl to each well of a black 96-well micro plate.
The BACE1 inhibitors were serially diluted into DMSO from their 10 mM stock concentrations in DMSO. The serially diluted inhibitors were diluted 1:100 into 1× assay buffer in a 96-well polypropylene plate (assay dilution plate). The final concentration of the BACE1 inhibitor tested was 300 nM, 100 nM, 30 nM, 10 nM, 3 nM, 1 nM 0.3 nM, and 0.00 nM. Dose responses for inhibitors were run in duplicate.
A volume of 10 μl of the inhibitor from the assay dilution plate, a control inhibitor LY2886721 or inhibitor vehicle was then added to each well of the black 96-well micro plate containing BACE1.
To each well of the black 96-well micro plate, 50 μl of the β-secretase substrate (Hylite Fluor 488) diluted 1:100 using assay buffer was added. The reagents were mixed gently and the assay plate was placed into a POLARstar fluorescent plate reader with excitation wavelength set at 485 nm and the emission wavelength set at 520 nm. The plate reader was set to take readings every 5 minutes for up to 30 minutes or a 30 minute endpoint reading was used.
An appropriate integrated first-order rate equation was used to fit the data accumulated over a 30-40 minute collection period.

Experiment [3] addresses pepsin (activated recombinant human pepsinogen A) (Homo sapiens (Human), UniProt P0DJD9). Briefly: Pepsin activity assay. Format: biochemical.
Description: 30 mM stocks of the experimental inhibitor compounds were prepared in DMSO. A 10 mM concentration of the inhibitor was prepared by diluting the 30 mM stock 3-fold in DMSO (30 μl of the [30 mM]:60 μl DMSO). 10-fold serial dilutions of 10 mM and 30 mM stocks were made on a dilution plate..
The pepstatin A inhibitor was received from Tocris Bioscience as 10 mg of lyophilized powder. DMSO was used to reconstitute the powder to a 10 mM concentration, which was aliquoted and stored at −20° C. A 40 μl volume of the 10 mM stock was thawed before use. 10-fold serial dilutions of 10 mM and 3 mM stocks were made in DMSO on a dilution plate.
Using a multichannel pipette, take a 2 μl volume of the diluted samples from the dilution plate into a new polypropylene 96-well plate. […]
After the enzyme addition, the substrate was added to each well in 50 μl volumes. […] The plate was immediately sealed and placed on a shaker set to 350 rpm for approximately 30 sec prior to reading in the Polar Star plate reader at room temperature with the excitation wavelength set at 320 nm, the emission wavelength set at 405 nm. Readings were taken every 41 seconds for approximately 25 minutes.
The selected BACE1 inhibitors in accordance with examples of the invention were then determined for Pepsin activity and target selectivity ratio (Pepsin IC50/BACE1 IC50).
For experiment [4], the target named is Human recombinant cathepsin D (Homo sapiens (Human), UniProt P07339). Briefly: Cathepsin D activity assay. Particulars: read-out: CatD IC50. Format: biochemical.
Chain of Human recombinant cathepsin D (P07339 65-412): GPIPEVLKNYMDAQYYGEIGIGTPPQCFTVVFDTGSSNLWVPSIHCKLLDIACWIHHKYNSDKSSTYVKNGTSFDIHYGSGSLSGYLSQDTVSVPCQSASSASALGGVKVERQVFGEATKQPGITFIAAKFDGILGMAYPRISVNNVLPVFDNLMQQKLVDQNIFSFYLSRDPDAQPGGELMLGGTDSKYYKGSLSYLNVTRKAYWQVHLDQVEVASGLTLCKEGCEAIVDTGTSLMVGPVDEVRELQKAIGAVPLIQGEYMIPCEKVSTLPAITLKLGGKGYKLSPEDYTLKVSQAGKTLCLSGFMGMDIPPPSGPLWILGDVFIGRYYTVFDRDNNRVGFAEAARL
Description: The development of a CatD activity assay is used to determine any potential cross reactivity for compounds selected from the β-secretase activity assay and to determine the selectivity to BACE1 inhibition. The CatD activity is reported for assessing target selectivity ratio (CatD IC50/BACE1 IC50).
The reagents for the cathepsin D assay were prepared as follows.
Human recombinant cathepsin D stored frozen in 2.0 μl aliquots was thawed and 42 μl of enzyme buffer (0.1M NaOAC, 0.2 M NaCl, pH 3.5) was added and incubated at 37° C. for 30 minutes. After 30 minutes the enzyme was further diluted to a final volume of 4.4 ml in enzyme buffer containing 5.0 mM DTT for immediate use in the cathepsin D assay.
The 7-methoxycoumarin-labeled peptide substrate (ES010) for cathepsin D was supplied as a 6.2 mM stock in DMSO. For use in the cathepsin D assay, the 6.2 mM stock was diluted to a 1.55 mM stock with DMSO. The 1.55 mM peptide stock in DMSO was further diluted 1:100 in reaction buffer (0.1M NaOAC, 0.2M NaCl, 0.1% Tween 20, 5.0 mM DTT, pH3.5) to create a 15.5 μM stock for use in the assay.
DMSO without compound served as a DMSO vehicle control for the cathepsin D assay. For each test compound, 30 μl of each dilution was pipetted into a separate well of a 96-well polypropylene plate. This polypropylene plate was labeled as the DMSO dilution plate and a plate map of test compound locations was made.
Test compounds from the DMSO dilution plate require a 1:100 dilution into reaction buffer before they can be added to the cathepsin D assay plate. To accomplish the 1:100 dilution of test compounds, 2.0 μl of each test compound at each concentration was pipetted from the DMSO dilution plate (using a multi-channel pipette calibrated to accurately dispense a 2.0 μl volume) into a new 96-well polypropylene plate using the plate map created for the DMSO dilution plate. This 96-well plate served as the inhibitor dilution plate. Next, 198 μl of reaction buffer was pipetted into each well of the inhibitor dilution plate (using a multi-channel pipette calibrated for accurate delivery of a 198 μl volume) and the pipetted test compound mixed by gentle up and down pipetting.
A1.0 mM stock of pepstatin A was made in DMSO and aliquotted into 5.0 μl samples for freezing and storage at −20° C. Upon thawing, 45 μl of DMSO (1:10 dilution) was added to create a 100 μM stock of pepstatin A in DMSO. The 100 μM Pepstatin A stock was further diluted 1:10 with DMSO to create a 10 μM stock in DMSO. […]
The assay plate was placed into a fluorescent plate reader with the excitation wavelength set at 320 nm and the emission wavelength set at 405 nm. Readings were collected every minute over a 30 minute collection period.

Chain of BACE1 (recombinant β-secretase enzyme) (P56817 46-501): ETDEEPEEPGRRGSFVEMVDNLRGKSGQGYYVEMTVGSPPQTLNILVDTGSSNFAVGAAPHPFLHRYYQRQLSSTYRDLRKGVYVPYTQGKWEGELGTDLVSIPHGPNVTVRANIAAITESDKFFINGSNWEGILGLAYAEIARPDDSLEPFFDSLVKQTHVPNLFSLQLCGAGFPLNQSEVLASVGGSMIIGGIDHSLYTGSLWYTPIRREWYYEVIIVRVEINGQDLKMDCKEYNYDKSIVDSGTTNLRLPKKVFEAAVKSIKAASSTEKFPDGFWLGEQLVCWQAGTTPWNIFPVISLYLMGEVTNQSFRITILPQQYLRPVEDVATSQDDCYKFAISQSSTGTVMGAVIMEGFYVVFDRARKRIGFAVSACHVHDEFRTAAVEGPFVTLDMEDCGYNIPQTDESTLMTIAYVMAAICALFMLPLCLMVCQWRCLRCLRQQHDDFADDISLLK
Chain of pepsin (activated recombinant human pepsinogen A) (P0DJD9 63-388): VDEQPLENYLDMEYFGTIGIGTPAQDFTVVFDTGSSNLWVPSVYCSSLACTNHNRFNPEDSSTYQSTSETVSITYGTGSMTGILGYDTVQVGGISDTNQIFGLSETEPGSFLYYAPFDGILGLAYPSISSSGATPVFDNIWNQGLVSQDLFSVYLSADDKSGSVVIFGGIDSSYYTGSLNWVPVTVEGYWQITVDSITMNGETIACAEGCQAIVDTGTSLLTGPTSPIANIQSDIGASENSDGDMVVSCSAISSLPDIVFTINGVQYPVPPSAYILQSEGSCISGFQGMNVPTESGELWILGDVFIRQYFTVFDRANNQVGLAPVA
Chain of recombinant BACE2 (Q9Y5Z0 63-518): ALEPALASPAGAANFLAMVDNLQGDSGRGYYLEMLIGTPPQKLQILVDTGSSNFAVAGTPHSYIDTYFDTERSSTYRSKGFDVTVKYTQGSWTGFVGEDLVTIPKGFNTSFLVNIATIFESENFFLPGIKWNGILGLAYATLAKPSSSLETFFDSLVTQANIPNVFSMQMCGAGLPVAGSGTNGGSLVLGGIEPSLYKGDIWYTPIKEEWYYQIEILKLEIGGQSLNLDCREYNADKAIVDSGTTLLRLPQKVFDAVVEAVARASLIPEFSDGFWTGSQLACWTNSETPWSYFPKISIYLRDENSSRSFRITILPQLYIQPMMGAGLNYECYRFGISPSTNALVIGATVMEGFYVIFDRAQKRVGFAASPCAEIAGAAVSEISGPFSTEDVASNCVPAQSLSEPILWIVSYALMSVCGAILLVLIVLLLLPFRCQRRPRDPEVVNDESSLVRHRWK

A word on the IC50: it is the concentration needed to halve the response being measured. In the case of `CC#Cc1ccc2sc3ccc([C@]4(C)CS(=O)(=O)C(C)(C)C(N)=N4)cc3c2c1` [Example 103, (R)-5-Amino-3,6,6-trimethyl-3-(8-(prop-1-yn-1-yl)dibenzo[b,d]thiophen-2-yl)-3,6-dihydro-2H-1,4-thiazine 1,1-dioxide], the IC50 on recombinant BACE2 came out at 12 nM; in experiment [2], 39 nM; in experiment [3] it was 3140 nM; in experiment [4] it was 17200 nM. Besides, in experiment [1], the “% of maximum Aβ40 inhibition over 24 hours” value stood at 45.9%.
Regarding `CC#Cc1ccc2sc3cc(F)c([C@]4(C)CS(=O)(=O)C(C)(C)C(=N)N4)cc3c2c1` [Example 109, (R)-5-Amino-3-(3-fluoro-8-(prop-1-yn-1-yl)dibenzo[b,d]thiophen-2-yl)-3,6,6-trim ethyl-3,6-dihydro-2H-1,4-thiazine 1,1-dioxide], the IC50 on recombinant BACE2 was 16 nM; in experiment [2], 25 nM; in experiment [3], 4380 nM; in experiment [4], 10800 nM. In experiment [1], the “% of maximum Aβ40 inhibition over 24 hours” value came out at 37.3%.
